Converted amounts (≈) assume the structure as drawn.
Legend:
physchem = conditions: pH 7.4, aqueous with cosolvent or surfactant or cyclodextrin, thermodynamic from solid, paclitaxel solubilized by SSMM
Experimental: Solubilization potential of both micelle compositions for a model drug was measured by HPLC after separation of the unincorporated drug.
Excess drug was removed by centrifugation and the supernatant was analyzed by HPLC. […] HPLC eluent was measured with adsorption at 254 nm.
According to this example, micelle compositions of the invention were further characterized. Particularly, the physiochemical properties of sterically stabilized micelles prepared with DSPE conjugated to molecular weight 2000, 3000, and 5000 PEG were analyzed. The critical micelle concentration (CMC) of phospholipids was determined at pH 7.4 and 25° C. using a water-insoluble fluorescent probe (1,6-diphenyl-1,3,5-hexatriene). Micellar size was determined by quasi-elastic light scattering.
The solvent was then removed by vacuum rotary evaporation under a stream of argon to form a dry film. This dry film was further dried under vacuum overnight to remove any traces of remaining solvent. The dried film was rehydrated with isotonic 0.01M HEPES buffer, pH 7.4. The solution was then flushed with argon, sealed and equilibrated for 12 h at room temperature. The unsolubilized excess paclitaxel was removed by centrifugation at 13,000 g for 5 min to obtain a clear dispersion.
The solubilization potentials of SSMM and SSM for paclitaxel were determined by RP-HPLC. The clear aqueous dispersion was diluted with methanol. 20 μl of each sample was injected at least three times into a μBondapak C-18 column, 3.9 mm×30 cm (Waters, Milford, Mass.) equipped with a C18 column guard. The column was eluted with acetonitrile/water (60:40) at 1.0 ml/min (Waters 600). Detection was by UV absorption measurement at 227 nm (Waters 490). Peak areas were calculated by interfacing the detector to an electronic integrator (Hewlett Packard). The drug concentration was calculated from standard curves.

[1] = test system: human breast cancer cells (MCF-7); test: In vitro cytotoxic activity, sulforhodamine B; conditions: three days incubation
Experimental: The cytotoxic activity of paclitaxel in SSMM, SSM and dimethyl sulfoxide (10% DMSO) was determined against human breast cancer cells (MCF-7; ATCC # HTB-22). The cell line was maintained in RPMI 1640 medium containing 10% fetal bovine serum and 1.0% antibiotics (penicillin and streptomycin), in a 5% carbon dioxide humidified atmosphere at 37° C. Optimum solutions of paclitaxel-SSM and paclitaxel-SSMM chosen from the solubilization studies were used as the test solutions. A 10% dimethyl sulfoxide (DMSO) solution of paclitaxel was also tested as a control. […]
Briefly, samples were prepared as described earlier and serial dilutions were made to obtain paclitaxel concentrations ranging from 0.0013 to 4 μg/ml using the respective solvent that is either HEPES buffer or 10% DMSO. […] Each sample was evaluated in triplicate. […] The optical density was then read at 515 nm. The optical density readings obtained for the solvent controls were used to define 100% growth after correcting for the value obtained for the zero day control. These values were then expressed as a % survival and ED50 values calculated using non-linear regression analysis (percent survival versus concentration).
All the data are expressed as means±standard deviation (SD). […] ED50 values were calculated for each formulation and compared statistically using one-way analysis of variance. […]

With `CC(=O)O[C@H]1C(=O)[C@@]2(C)[C@H]([C@H](OC(=O)c3ccccc3)[C@]3(O)C[C@H](OC(=O)[C@H](O)[C@@H](NC(=O)c4ccccc4)c4ccccc4)C(C)=C1C3(C)C)[C@]1(OC(C)=O)CO[C@@H]1C[C@@H]2O` [paclitaxel] as the compound, how does the solubility at 12 h (physchem) read?
Its solubility at 12 h is 1320 ± 48 µg/mL (≈ 1550 µM).

What about the “cytotoxic activity against MCF-7 cells” value [1] of the same compound?
Its value is “comparable cytotoxic activities”.

Source: patent US20110142884A1, “Materials and Methods for Making Improved Micelle Compositions” (The Board of Trustees of the University of Illinois, priority 2002, published 2011)
